PMC5218480 (PLoS ONE, 2017)

Test system: MV-4-11 cells
Assay: Gene expression microarray analysis (Affymetrix PrimeView) and GSEA
Type: cell-based, human
Parameters: RFU PODN (11730768_x_at) / Fold change /veh PODN (11730768_x_at) / RFU LINC00158 (11744669_a_at) / Fold change /veh LINC00158 (11744669_a_at) / RFU DUSP10 (11751237_a_at) / Fold change /veh DUSP10 (11751237_a_at) / RFU ID3 (11757404_x_at) / Fold change /veh ID3 (11757404_x_at) / RFU PLEKHG5 (11737974_s_at) / Fold change /veh PLEKHG5 (11737974_s_at) / RFU LRRC4B (11730491_at) / Fold change /veh LRRC4B (11730491_at) / RFU GIMAP4 (11747438_a_at) / Fold change /veh GIMAP4 (11747438_a_at) / RFU KRT8 (11758183_x_at) / Fold change /veh KRT8 (11758183_x_at) / RFU CNN1 (11734310_a_at) / Fold change /veh CNN1 (11734310_a_at) / RFU VPS37D (11726825_at) / Fold change /veh VPS37D (11726825_at) / RFU C10orf10 (11716522_x_at) / Fold change /veh C10orf10 (11716522_x_at) / RFU KIR2DL2 /// KIR2DL4 /// KIR2DL5A /// KIR2DL5B /// KIR2DS1 /// KIR2DS2 /// KIR2DS3 /// KIR2DS4 /// KIR3DL3 /// KIR3DL3 /// KIR3DS1 (11738374_at) / Fold change /veh KIR2DL2 /// KIR2DL4 /// KIR2DL5A /// KIR2DL5B /// KIR2DS1 /// KIR2DS2 /// KIR2DS3 /// KIR2DS4 /// KIR3DL3 /// KIR3DL3 /// KIR3DS1 (11738374_at) / RFU C1QL1 (11718748_at) / Fold change /veh C1QL1 (11718748_at) / RFU TMPRSS4 (11747572_a_at) / Fold change /veh TMPRSS4 (11747572_a_at) / RFU HAMP (11756126_x_at) / Fold change /veh HAMP (11756126_x_at) / RFU RNFT2 (11725882_a_at) / Fold change /veh RNFT2 (11725882_a_at) / RFU NR4A2 (11747474_a_at) / Fold change /veh NR4A2 (11747474_a_at) / RFU ABCC12 (11746883_a_at) / Fold change /veh ABCC12 (11746883_a_at) / RFU TMEM136 (11760407_x_at) / Fold change /veh TMEM136 (11760407_x_at) / RFU CLDN22 /// WWC2 (11732394_at) / Fold change /veh CLDN22 /// WWC2 (11732394_at) / RFU HLA-DPB1 (11760878_x_at) / Fold change /veh HLA-DPB1 (11760878_x_at) / RFU SPINT1 (11716480_a_at) / Fold change /veh SPINT1 (11716480_a_at) / RFU GAP43 (11754022_s_at) / Fold change /veh GAP43 (11754022_s_at) / RFU A4GNT (11735810_at) / Fold change /veh A4GNT (11735810_at) / RFU PRB3 (11715151_x_at) / Fold change /veh PRB3 (11715151_x_at) / RFU TUBB4B (11761932_at) / Fold change /veh TUBB4B (11761932_at) / RFU CAPN14 (11732068_a_at) / Fold change /veh CAPN14 (11732068_a_at) / RFU TMCC2 (11721928_a_at) / Fold change /veh TMCC2 (11721928_a_at) / RFU IRGQ (11745062_a_at) / Fold change /veh IRGQ (11745062_a_at) / RFU FAM174B (11720279_a_at) / Fold change /veh FAM174B (11720279_a_at) / RFU TMPRSS4 (11748680_a_at) / Fold change /veh TMPRSS4 (11748680_a_at) / RFU FAM212B (11763350_a_at) / Fold change /veh FAM212B (11763350_a_at) / RFU PLEKHG5 (11743358_a_at) / Fold change /veh PLEKHG5 (11743358_a_at) / RFU ZSCAN30 (11745921_a_at) / Fold change /veh ZSCAN30 (11745921_a_at) / RFU CMKLR1 (11741424_a_at) / Fold change /veh CMKLR1 (11741424_a_at) / RFU LOC101060620 /// MAPK8IP1 (11723275_at) / Fold change /veh LOC101060620 /// MAPK8IP1 (11723275_at) / RFU SPTSSB (11747773_x_at) / Fold change /veh SPTSSB (11747773_x_at) / RFU PRSS12 (11739890_at) / Fold change /veh PRSS12 (11739890_at) / RFU BIN1 (11741810_x_at) / Fold change /veh BIN1 (11741810_x_at) / RFU WNT11 (11732464_a_at) / Fold change /veh WNT11 (11732464_a_at) / RFU C10orf10 (11716521_a_at) / Fold change /veh C10orf10 (11716521_a_at) / RFU C5orf56 (11738089_at) / Fold change /veh C5orf56 (11738089_at) / RFU CYB561 (11721691_x_at) / Fold change /veh CYB561 (11721691_x_at) / RFU ANKRD19P (11752326_a_at) / Fold change /veh ANKRD19P (11752326_a_at) / RFU OR2T12 /// OR2T33 /// OR2T8 (11738714_s_at) / Fold change /veh OR2T12 /// OR2T33 /// OR2T8 (11738714_s_at) / RFU VCAN (11748164_a_at) / Fold change /veh VCAN (11748164_a_at) / RFU JSRP1 (11732532_at) / Fold change /veh JSRP1 (11732532_at) / RFU KRTAP10-11 (11738290_x_at) / Fold change /veh KRTAP10-11 (11738290_x_at) / RFU MYO3A (11730013_a_at) / Fold change /veh MYO3A (11730013_a_at) / RFU EBF3 (11725865_a_at) / Fold change /veh EBF3 (11725865_a_at) / RFU CAMK2N1 (11719241_x_at) / Fold change /veh CAMK2N1 (11719241_x_at) / RFU C5orf56 (11738088_a_at) / Fold change /veh C5orf56 (11738088_a_at) / RFU OLFML3 (11715873_a_at) / Fold change /veh OLFML3 (11715873_a_at) / RFU LOC100653217 /// NTM (11731650_a_at) / Fold change /veh LOC100653217 /// NTM (11731650_a_at) / RFU MAPK11 (11762145_a_at) / Fold change /veh MAPK11 (11762145_a_at) / RFU FIZ1 (11724087_x_at) / Fold change /veh FIZ1 (11724087_x_at) / RFU OASL (11726364_x_at) / Fold change /veh OASL (11726364_x_at) / RFU SOX15 (11748057_x_at) / Fold change /veh SOX15 (11748057_x_at) / RFU CD79A (11719716_a_at) / Fold change /veh CD79A (11719716_a_at) / RFU HIST1H1D (11736915_at) / Fold change /veh HIST1H1D (11736915_at) / RFU CASKIN2 (11723855_a_at) / Fold change /veh CASKIN2 (11723855_a_at) / RFU LOC730098 (11760151_x_at) / Fold change /veh LOC730098 (11760151_x_at) / RFU OR4N2 (11742367_at) / Fold change /veh OR4N2 (11742367_at) / RFU PRRT2 (11749266_a_at) / Fold change /veh PRRT2 (11749266_a_at) / RFU SNX32 (11753110_a_at) / Fold change /veh SNX32 (11753110_a_at) / RFU CDHR5 (11726645_a_at) / Fold change /veh CDHR5 (11726645_a_at) / RFU RCAN1 (11760418_a_at) / Fold change /veh RCAN1 (11760418_a_at) / RFU FAM167A (11723789_a_at) / Fold change /veh FAM167A (11723789_a_at) / RFU FAM26E (11764081_at) / Fold change /veh FAM26E (11764081_at) / RFU ISYNA1 (11749810_s_at) / Fold change /veh ISYNA1 (11749810_s_at) / RFU ACY1 (11761880_at) / Fold change /veh ACY1 (11761880_at) / RFU 11764098_at / Fold change /veh 11764098_at / RFU SAMD14 (11745864_x_at) / Fold change /veh SAMD14 (11745864_x_at) / RFU NPB (11741838_a_at) / Fold change /veh NPB (11741838_a_at) / RFU TMPRSS6 (11731388_a_at) / Fold change /veh TMPRSS6 (11731388_a_at) / RFU KRTAP10-2 (11738614_at) / Fold change /veh KRTAP10-2 (11738614_at) / RFU ARHGAP8 /// PRR5-ARHGAP8 (11727945_x_at) / Fold change /veh ARHGAP8 /// PRR5-ARHGAP8 (11727945_x_at) / RFU KRTAP5-7 /// NADSYN1 (11734609_at) / Fold change /veh KRTAP5-7 /// NADSYN1 (11734609_at) / RFU RASL12 (11751679_a_at) / Fold change /veh RASL12 (11751679_a_at) / RFU CDKN2B (11736163_a_at) / Fold change /veh CDKN2B (11736163_a_at) / RFU PRF1 (11729649_at) / Fold change /veh PRF1 (11729649_at) / RFU, ZNF638 /// ZNF638-IT1 / Fold change vs veh, ZNF638 /// ZNF638-IT1 / RFU, PANK3 / Fold change vs veh, PANK3 / RFU, SH3YL1 / Fold change vs veh, SH3YL1 / RFU, ZEB2 / Fold change vs veh, ZEB2 / RFU, NRIP1 / Fold change vs veh, NRIP1 / RFU, PTTG1IP / Fold change vs veh, PTTG1IP / RFU, CAPN2 / Fold change vs veh, CAPN2 / RFU, MED14 / Fold change vs veh, MED14 / RFU, SNORA58 / Fold change vs veh, SNORA58 / RFU, C1orf63 / Fold change vs veh, C1orf63 / RFU, LRRFIP1 / Fold change vs veh, LRRFIP1 / RFU, NDUFAF7 / Fold change vs veh, NDUFAF7 / RFU, SLC12A2 / Fold change vs veh, SLC12A2 / RFU, IBTK / Fold change vs veh, IBTK / RFU, ESF1 / Fold change vs veh, ESF1 / Fold change vs veh, TMEM50B / RFU, TAOK1 / Fold change vs veh, TAOK1 / RFU, ACBD3 / Fold change vs veh, ACBD3 / RFU, TMA16 / Fold change vs veh, TMA16 / RFU, RWDD3 / Fold change vs veh, RWDD3 / RFU, BCAT1 / Fold change vs veh, BCAT1 / RFU, EDEM3 / Fold change vs veh, EDEM3 / RFU, TMEM33 / Fold change vs veh, TMEM33 / RFU, WDR75 / Fold change vs veh, WDR75 / RFU, AHCTF1 / Fold change vs veh, AHCTF1 / RFU, TFRC / Fold change vs veh, TFRC / RFU, ZDHHC17 / Fold change vs veh, ZDHHC17 / RFU, NOM1 / Fold change vs veh, NOM1 / RFU, ARL8B / Fold change vs veh, ARL8B / RFU, ZBTB11 / Fold change vs veh, ZBTB11 / RFU, TAMM41 / Fold change vs veh, TAMM41 / RFU, KIAA1704 /// LOC100996395 / Fold change vs veh, KIAA1704 /// LOC100996395 / RFU, ING1 / Fold change vs veh, ING1 / RFU, TRMT61B / Fold change vs veh, TRMT61B / RFU, FUBP3 / Fold change vs veh, FUBP3 / RFU, TP53 / Fold change vs veh, TP53 / RFU, TNKS2 / Fold change vs veh, TNKS2 / RFU, ZFP14 / Fold change vs veh, ZFP14 / RFU, ACTR2 / Fold change vs veh, ACTR2 / RFU, PPP3R1 / Fold change vs veh, PPP3R1 / RFU, PIK3R1 / Fold change vs veh, PIK3R1 / RFU, HNRNPA1 / Fold change vs veh, HNRNPA1 / RFU, RNF170 / Fold change vs veh, RNF170 / RFU, ZNF28 / Fold change vs veh, ZNF28 / RFU, RNGTT / Fold change vs veh, RNGTT / RFU, OGT / Fold change vs veh, OGT / RFU, BRD1 / Fold change vs veh, BRD1 / RFU, MARS / Fold change vs veh, MARS / RFU, ZNF655 / Fold change vs veh, ZNF655 / RFU, FAHD1 / Fold change vs veh, FAHD1 / RFU, BDP1 / Fold change vs veh, BDP1 / RFU, LRRCC1 / Fold change vs veh, LRRCC1 / RFU, ARID1A / Fold change vs veh, ARID1A / RFU, ZNF146 / Fold change vs veh, ZNF146 / RFU, ZNF330 / Fold change vs veh, ZNF330 / RFU, GPN3 / Fold change vs veh, GPN3 / RFU, C9orf123 / Fold change vs veh, C9orf123 / RFU, N4BP2L2 / Fold change vs veh, N4BP2L2 / RFU, ARFIP1 / Fold change vs veh, ARFIP1 / RFU, FAM179B / Fold change vs veh, FAM179B / RFU, BCL10 / Fold change vs veh, BCL10 / RFU, UHRF1BP1L / Fold change vs veh, UHRF1BP1L / RFU, BET1 / Fold change vs veh, BET1 / RFU, CNOT2 / Fold change vs veh, CNOT2 / RFU, ZNF268 / Fold change vs veh, ZNF268 / Fold change vs veh, ZNF507 / RFU, DGCR2 / Fold change vs veh, DGCR2 / RFU, WDSUB1 / Fold change vs veh, WDSUB1 / Fold change vs veh, HSP90B1 /// MIR3652 / RFU, ADSS / Fold change vs veh, ADSS / RFU, GK / Fold change vs veh, GK / RFU, ZNF148 / Fold change vs veh, ZNF148 / RFU, TAF9 / Fold change vs veh, TAF9 / RFU, SLC1A5 / Fold change vs veh, SLC1A5 / RFU, SLMO2 / Fold change vs veh, SLMO2 / RFU, ABCC4 / Fold change vs veh, ABCC4 / RFU, LOC101060439 /// RAP1B / Fold change vs veh, LOC101060439 /// RAP1B / RFU, RFX7 / Fold change vs veh, RFX7 / RFU, GTPBP10 / Fold change vs veh, GTPBP10 / RFU, CNEP1R1 / Fold change vs veh, CNEP1R1 / RFU, BIVM-ERCC5 /// ERCC5 / Fold change vs veh, BIVM-ERCC5 /// ERCC5 / RFU, ILF3 / Fold change vs veh, ILF3 / RFU 11762660_at / Fold change /veh 11762660_at / RFU VCAN (11757783_s_at) / Fold change /veh VCAN (11757783_s_at) / RFU DDX43 (11728927_at) / Fold change /veh DDX43 (11728927_at) / RFU KRT8 (11758188_x_at) / Fold change /veh KRT8 (11758188_x_at) / RFU NKD1 (11759106_at) / Fold change /veh NKD1 (11759106_at) / RFU SRD5A1 (11742802_a_at) / Fold change /veh SRD5A1 (11742802_a_at) / RFU TPSAB1 /// TPSB2 (11721975_s_at) / Fold change /veh TPSAB1 /// TPSB2 (11721975_s_at) / RFU GSTM3 (11746129_a_at) / Fold change /veh GSTM3 (11746129_a_at) / RFU IL23R (11737362_x_at) / Fold change /veh IL23R (11737362_x_at) / RFU TMEM51 (11727254_a_at) / Fold change /veh TMEM51 (11727254_a_at) / RFU PIWIL2 (11732686_x_at) / Fold change /veh PIWIL2 (11732686_x_at) / RFU ORM1 (11744905_x_at) / Fold change /veh ORM1 (11744905_x_at) / RFU CCDC152 (11743942_at) / Fold change /veh CCDC152 (11743942_at) / RFU ECM1 (11717891_a_at) / Fold change /veh ECM1 (11717891_a_at) / RFU IL23R (11748794_a_at) / Fold change /veh IL23R (11748794_a_at) / RFU TNFAIP8L3 (11732012_x_at) / Fold change /veh TNFAIP8L3 (11732012_x_at) / RFU MBOAT4 (11741988_at) / Fold change /veh MBOAT4 (11741988_at) / RFU 11764193_at / Fold change /veh 11764193_at / RFU TMEM53 (11763286_at) / Fold change /veh TMEM53 (11763286_at) / RFU MAGEB2 (11727129_at) / Fold change /veh MAGEB2 (11727129_at) / RFU TMEM200A (11744735_a_at) / Fold change /veh TMEM200A (11744735_a_at) / RFU CCDC152 (11751479_a_at) / Fold change /veh CCDC152 (11751479_a_at) / RFU FAM211A (11726209_a_at) / Fold change /veh FAM211A (11726209_a_at) / RFU RGS16 (11746705_a_at) / Fold change /veh RGS16 (11746705_a_at) / RFU VCAN (11755009_s_at) / Fold change /veh VCAN (11755009_s_at) / RFU RHOB (11743442_s_at) / Fold change /veh RHOB (11743442_s_at) / RFU RGS16 (11720943_a_at) / Fold change /veh RGS16 (11720943_a_at) / RFU RGS16 (11720944_at) / Fold change /veh RGS16 (11720944_at) / RFU, VPS4B / Fold change vs veh, VPS4B / RFU, CREB1 / Fold change vs veh, CREB1 / RFU, DNAJC13 / Fold change vs veh, DNAJC13 / RFU, GNAQ / Fold change vs veh, GNAQ / RFU, CDK5R1 / Fold change vs veh, CDK5R1 / RFU, ZRANB3 / Fold change vs veh, ZRANB3 / RFU, CUL4A / Fold change vs veh, CUL4A / RFU, CCNY / Fold change vs veh, CCNY / RFU, UFL1 / Fold change vs veh, UFL1 / RFU, COG3 / Fold change vs veh, COG3 / RFU, DIAPH2 / Fold change vs veh, DIAPH2 / RFU, SKA2 / Fold change vs veh, SKA2 / RFU, AFF3 / Fold change vs veh, AFF3 / RFU, LMF1 / Fold change vs veh, LMF1 / RFU, IPO11 / Fold change vs veh, IPO11 / RFU, DFFB / Fold change vs veh, DFFB / RFU, FOXP1 / Fold change vs veh, FOXP1 / RFU, CARD8 / Fold change vs veh, CARD8 / RFU, STRN3 / Fold change vs veh, STRN3 / RFU, ADK / Fold change vs veh, ADK / RFU, RASSF2 / Fold change vs veh, RASSF2 / RFU, WIPF1 / Fold change vs veh, WIPF1 / RFU, LARP1B / Fold change vs veh, LARP1B / RFU, RASA1 / Fold change vs veh, RASA1 / RFU, RB1 / Fold change vs veh, RB1 / RFU, PPFIA1 / Fold change vs veh, PPFIA1 / RFU, MAT2A / Fold change vs veh, MAT2A / RFU, CCT5 / Fold change vs veh, CCT5 / RFU, WDR92 / Fold change vs veh, WDR92 / RFU, CUX1 / Fold change vs veh, CUX1 / RFU, TTC7A / Fold change vs veh, TTC7A / RFU, TMEM135 / Fold change vs veh, TMEM135 / RFU, DEPTOR / Fold change vs veh, DEPTOR / RFU, CPM / Fold change vs veh, CPM / RFU, DNAJB6 / Fold change vs veh, DNAJB6 / RFU, CACNA2D3 / Fold change vs veh, CACNA2D3 / RFU, DTX4 / Fold change vs veh, DTX4 / RFU, TFCP2 / Fold change vs veh, TFCP2 / RFU, GMCL1 /// GMCL1P1 / Fold change vs veh, GMCL1 /// GMCL1P1 / RFU, AEBP2 / Fold change vs veh, AEBP2 / RFU, SNHG1 /// SNORD22 /// SNORD25 /// SNORD26 /// SNORD27 /// SNORD28 /// SNORD29 /// SNORD31 / Fold change vs veh, SNHG1 /// SNORD22 /// SNORD25 /// SNORD26 /// SNORD27 /// SNORD28 /// SNORD29 /// SNORD31 / Fold change (Aza/veh), C12orf56 (ProbeSet 11735607_a_at) / Fold change (ACY-1035/veh), C12orf56 (ProbeSet 11735607_a_at) / Fold change (Aza/veh), FGFR1OP (ProbeSet 11751329_s_at) / Fold change (ACY-1035/veh), FGFR1OP (ProbeSet 11751329_s_at) / Fold change (Aza/veh), VPS36 (ProbeSet 11739960_a_at) / Fold change (ACY-1035/veh), VPS36 (ProbeSet 11739960_a_at) / RFU SYPL1 (11715823_x_at) / Fold change /veh SYPL1 (11715823_x_at) / RFU IGFBP7 (11715501_s_at) / Fold change /veh IGFBP7 (11715501_s_at) / RFU REEP3 (11722064_at) / Fold change /veh REEP3 (11722064_at) / RFU IGLL1 (11728026_x_at) / Fold change /veh IGLL1 (11728026_x_at): dose or concentration left out as unconfirmed
Conditions: ProbeSet 11733831_s_at; LIST D

In the case of Nc1ncn([C@@H]2O[C@H](CO)[C@@H](O)[C@H]2O)c(=O)n1 [azacitidine], the “Fold change vs veh, GMCL1 /// GMCL1P1” value is reported as 0.81.
